pIC50: −log10 of the molar value.
Key:
[1] = target: T1, aldose reductase from calves lenses (Bos taurus, UniProt P16116); assay: inhibiting activity of aldose reductase from calves lenses; assay type: biochemical; settings: read-out: IC50 values (concentrations which bring about 50% enzyme inhibition)
T1 construct: aldose reductase from calves lenses; from tissue; host or cells: calf lens

[2] = tested on: streptozotocin-treated, diabetic rats; assay: sorbitol concentration in eye lens and sciatic nerve of streptozotocin-treated, diabetic rats; assay type: in vivo; settings: 3 times 20 mg/kg p.o. (4, 8 and 24 hours after streptozotocin), 3 hours after last dosage
Procedure: (§1) Furthermore, the compound of formula I in which R^1 is fluorine and R^2 is hydrogen was investigated for its activity on galactosaemic rats (30% galactose diet). More particularly, the dulcitol concentration in the eye lens was determined after 5 applications of 5 and of 20 mg/kg body weight per os over 2 days. Similarly, 20 mg/kg were administered intraperitoneally in an additional experiment. […] The same compound was also administered to streptozotocin-treated, diabetic rats (3 times 20 mg/kg p.o., 4, 8 and 24 hours after streptozotocin administration). Three (3) hours after the administration of the last dosage, the sorbitol concentration was determined in the eye lens and in the sciatic nerve.

galactosaemic rats = assay: dulcitol concentration in the eye lens of galactosaemic rats (30% galactose diet); assay type: in vivo; settings: compared to untreated galactosaemic animals
Procedure: as §1

| pIC50 [1] | SMILES | sorbitol concentration in the eye lens [2] | sorbitol concentration in the sciatic nerve [2] | dulcitol concentration in the eye lens (galactosaemic rats; 20 mg/kg administered intraperitoneally) | dulcitol concentration in the eye lens (galactosaemic rats; 5 applications of 5 mg/kg body weight per os over 2 days) | dulcitol concentration in the eye lens (galactosaemic rats; 5 applications of 20 mg/kg body weight per os over 2 days) |
| --- | --- | --- | --- | --- | --- | --- |
| 7.00 | O=C1NC(=O)C2(CCOc3ccc(F)cc32)S1 (racemic) [(±)-6-fluoro-2,3-dihydrospiro[4H-1-benzopyran-4,5'-thiazolidine]-2',4'-dione] | clear decrease | clear decrease | significant decrease | significant decrease | significant decrease |
| 8.10 | CC(=O)Nc1cc(F)cc2c1OCCC21SC(=O)NC1=O (racemic) [(±)-6-fluoro-8-acetamido-2,3-dihydrospiro[4H-1-benzopyran-4,5'-thiazolidine]-2',4'-dione] |  |  |  |  |  |
| 7.05 | O=C1NC(=O)C2(CCOc3c([N+](=O)[O-])cc(F)cc32)S1 (racemic) [(±)-6-fluoro-8-nitro-2,3-dihydrospiro[4H-1-benzopyran-4,5'-thiazolidine]-2',4'-dione] |  |  |  |  |  |

— US4587256A, “Novel thiazolidine derivatives” (Hoffmann-La Roche Inc., priority 1983, dated 1986)
